Assay: nBTPT recovered after storage in bags (HPLC, CEN 15688-2007)
Assay type: physicochemical
Conditions: bagged conditions without the presence of a head space (exclusion of moisture and atmospheric gasses)
Description: For lab scale experiments, 1.2 kg of solid UAS fertilizer material was added to a lab scale drum. In a next step, the nBTPT/stabilizer material was slowly added. A residence time of 10 minutes was applied, and the rotating speed of the drum was consequently the same in each experiment. In case a moisture-repellent coating was added, a nebulizer was used and depending on the order of addition, the moisture-repellent coating was added before or after addition of the nBTPT material. Before use, the moisture-repellent coating was preheated to 80° C. Larger scale experiments with amounts up to 40 kg of fertilizer material were performed in a concrete mixer.
Optionally, a zinc sulphate, anhydrous zinc sulphate or monohydrate zinc sulphate, was coated on the particles (0.46 weight %). […] Product samples were taken at different times from a bag and the amount of nBTPT still present was measured by HPLC according to the procedure CEN 15688-2007, the results are presented in FIG. 1. […]
Urea particles containing 46 weight % of nitrogen was coated with 0.046 weight % of nBTPT, as urease inhibitor, and an inorganic stabilizer, magnesium oxide (0.023 weight %). […] Product samples were taken at different times and the amount of nBTPT still present was measured by HPLC according to the procedure CEN 15688-2007, the results are presented in FIG. 5. […]

**Q.** Which “stability of the urease inhibitor” value does the source give for `CCCCNP(N)(N)=S` [nBTPT, N-(n-butyl) thiophosphoric triamide] here?
**A.** further increased

Source: patent US20220388919A1, “UREA-BASED BLEND COMPOSITION AND METHOD FOR THE MANUFACTURE THEREOF” (Yara International ASA, priority 2019, published 2022)
